# Experimental data: US20190161418A1, “OIL-SOLUBLE PLANT MICRONUTRIENTS” (Huntsman Petrochemical LLC, priority 2016, published 2019)
# Test system: corn seedlings
# Assay: Zinc uptake measurements in corn seedlings (foliar spray, ICP-MS)
# Format: in vivo
# Conditions: corn seedling aerial tissue 48 hours after spray; normalized to water control (set as 1); average of two trials; ZnSO4 1 lb Zn/acre, Zn-LAS/MSO and Zn-EDTA 0.15 lb Zn/acre, Ca-LAS/MSO 1.07 g/L
# Method: In this example, the Zn salt of linear alkylbenzene sulfonate from example 1 was sprayed on corn seedlings that were grown in potting soil and zinc uptake into the plant leaves was measured and compared to uptake of other forms of zinc as described below. The samples that were analyzed were prepared by spraying the leaves with the particular formulation, drying the leaves after spraying, grinding the leaves, digesting them in aqua regia and measuring the concentration of zinc in solution by inductively coupled plasma mass spectrometry (ICP-MS). Spray treatment formulations were prepared as follows, based on an average delivery of 3.3 mL solution per 4 inch square pot (16 in^2 treated area): • a) deionized water only • b) Ca-LAS/MSO: 1.07 g/L in deionized water • c) ZnSO4: 1.02 g/L ZnSO4 in deionized water to approximate the recommended use rate of 1 lb Zn in 20 gallons solution per acre • d) Zn-LAS/MSO (5% w/w Zn, density 1.02 g/mL): 1.07 g/L in deionized water to approximate a use rate of 0.15 lb Zn in 20 gallons solution per acre • e) Zn-EDTA (9% w/w Zn, density 1.31 g/mL): 0.59 g/L in deionized water to approximate the recommended use rate of 0.15 lb Zn in 20 gallons solution per acre.
# After 48 hours of incubation, each seedling was cut just above the soil line and the aerial tissue was used for analysis. […]
smiles,measurement,value
O=S(=O)([O-])[O-].[Zn+2] [ZnSO4],Relative Zinc Concentration,2.01
